The record followed here is patent US20080269266A1, “NOVEL COMPOUNDS 747” (ASTRAZENECA AB, priority 2007, published 2008).

Converted amounts (≈) assume the structure as drawn. Some results are limits rather than exact numbers.

Data set [1] has as its target T1, human cytochrome P450 (CYP) 2C19 (Homo sapiens, UniProt P33261).
T1 construct: made in house; host or cells: yeast cell lines (microsomal fractions)
Description: Cytochrome P450 Inhibition Assay 2C19. The class given is in vitro ADME. The conditions noted are these: test compound final concentrations 0.1-10 μM; substrate MFC; read-out: Ic50 2C19. On the procedure:
(§1) The inhibitory potential (IC50) of test compounds against 5 human cytochrome P450 (CYP) isoforms (1A2, 2C9, 2C19, 3A4 and 2D6) was assessed using an automated fluorescent end point in vitro assay modified from Crespi (Crespi and Stresser, 2000). Microsomal subcellular fractions prepared from Yeast cell lines expressing each human CYP isoform were used as an enzyme source in this assay. The activity of the 5 major human CYPs was determined from the biotransformation of a number of coumarin substrates to fluorescent metabolites, in the presence of NADPH. […] Stock solutions of each CYP, with its respective substrate, were prepared in phosphate buffer pH7.4 (see Table 1) and 178 μl was added to the well of a black solid, flat bottom, 300 μl 96 well is microtitre plate (Corning Costar). […] After pre-incubating at 37° C. for 5 min the reactions were started with addition of NADPH (20 μl, concentration shown in Table 1). The final solvent content in each incubation was <=2% (1% from the test compound and a maximum of 1% from the substrate). The appropriate solvent controls and substrate blanks were included in each experiment to assess control activity and identify any inherent fluorescence due to the test compounds. In addition, known inhibitors of each CYP were included as positive controls (see Table 3 for inhibitor concentrations and expected IC50 ranges). The reactions were stopped at defined timepoints (see Table 1) by quenching with 100 μl of solvent (acetonitrile:0.5M Tris buffer 80:20 v/v). The plates were read on a fluorimeter (Spectrafluor Plus) at the appropriate excitation and emission wavelengths (listed in Table 2) and the percent activity, corrected for control, was plotted against the test compound concentration.

Data set [2] can be described thus: Protein binding by equilibrium dialysis. The class given is in vitro ADME. As to conditions: rat, equilibrium dialysis against 10% plasma, 37° C., read-out: Protein binding, % free. Here is the method:
Protein binding is determined by equilibrium dialysis. A 20 iM concentration of compound is dialyzed against 10% plasma at a temperature of 37° C. for 18 h. The resulting samples are analyzed using generic HPLC-UV methodology coupled with mass spectral peak identification. The reported K1 value is the first apparent association constant [proteináligand]/([protein][ligand]), all concentrations being measured in moles/liter (J. Med. Chem., 2006, 49(23), 6672-6682).
Protein binding can be measured in a high-throughput screen by equilibrium dialysis combined with liquid chromatography and mass spectrometry (Wan, H. and Rehngren, M., J. Chromatogr. A 2006, 1102, 125-134).
(Equilibrium dialysis compares concentrations on both sides of a semipermeable membrane.)

Data set [3] is described as follows: Solubility in 0.1 M phosphate buffer pH 7.4. The class given is physicochemical. As to conditions: pH 7.4, 24 h. On the procedure: Solubility values are determined by agitation of compounds in 0.1 M phosphate buffer at pH 7.4 for 24 h at 25° C. The supernatant is separated from undissolved material by double centrifugation and subsequently analyzed and quantified against a standard of known concentration in DMSO using generic HPLC-UV methodology coupled with mass spectral peak identification (J. Med. Chem., 2006, 49(23), 6672-6682).

Data set [4] addresses T2, human cytochrome P450 (CYP) 2C9 (Homo sapiens, UniProt P11712).
T2 construct: made in house; host or cells: yeast cell lines (microsomal fractions)
Description: Cytochrome P450 Inhibition Assay 2C9. The class given is in vitro ADME. The conditions noted are these: test compound final concentrations 0.1-10 μM; substrate MFC. Here is the method: as §1, with “The final solvent content in each incubation was <=2% (1% from the test compound and a maximum of 1% from the substrate).” left out, “In addition, known inhibitors of each CYP were included as positive controls (see Table 3 for inhibitor concentrations and expected IC50 ranges). The reactions were stopped at defined timepoints (see Table 1) by quenching with 100 μl of solvent (acetonitrile:0.5M Tris buffer 80:20 v/v).” left out

T1 sequence (P33261 whole entry): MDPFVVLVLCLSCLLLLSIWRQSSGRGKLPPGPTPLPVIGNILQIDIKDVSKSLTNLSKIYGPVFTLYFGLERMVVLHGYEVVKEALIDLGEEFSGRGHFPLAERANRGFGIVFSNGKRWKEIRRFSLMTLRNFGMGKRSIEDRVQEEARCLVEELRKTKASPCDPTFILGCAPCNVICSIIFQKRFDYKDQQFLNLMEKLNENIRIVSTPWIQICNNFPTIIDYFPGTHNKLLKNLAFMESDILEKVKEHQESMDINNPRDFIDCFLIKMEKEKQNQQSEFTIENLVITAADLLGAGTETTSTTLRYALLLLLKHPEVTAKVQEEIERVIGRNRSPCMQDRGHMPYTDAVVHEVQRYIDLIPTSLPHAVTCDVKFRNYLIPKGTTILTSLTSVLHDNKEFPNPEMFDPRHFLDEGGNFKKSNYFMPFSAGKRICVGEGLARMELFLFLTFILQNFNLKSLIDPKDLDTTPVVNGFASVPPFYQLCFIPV
T2 sequence (P11712 whole entry): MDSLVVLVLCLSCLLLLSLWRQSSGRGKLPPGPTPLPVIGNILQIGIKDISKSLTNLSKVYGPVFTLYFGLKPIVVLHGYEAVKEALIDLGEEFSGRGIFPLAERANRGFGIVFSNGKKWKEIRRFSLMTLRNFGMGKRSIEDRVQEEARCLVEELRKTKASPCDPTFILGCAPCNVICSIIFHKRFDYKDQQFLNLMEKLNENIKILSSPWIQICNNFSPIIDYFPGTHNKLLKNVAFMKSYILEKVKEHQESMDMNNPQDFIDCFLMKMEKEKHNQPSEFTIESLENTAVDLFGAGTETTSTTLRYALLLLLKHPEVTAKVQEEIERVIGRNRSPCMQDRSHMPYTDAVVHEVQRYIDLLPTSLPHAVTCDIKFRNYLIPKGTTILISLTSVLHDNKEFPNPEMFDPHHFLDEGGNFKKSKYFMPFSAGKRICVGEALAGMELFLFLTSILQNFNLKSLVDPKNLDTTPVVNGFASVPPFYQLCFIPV

Consider `CCc1cc(Nc2cc(OC)nc(N3CCC[C@H]3c3cc(-c4ncccn4)no3)n2)n[nH]1` [Comparative Example A, (S)-6-Methoxy-2-{2-[3-(pyrimid-2-yl)isoxazol-5-yl]pyrrolidin-1-yl}-4-(5-ethyl-1H-pyrazol-3-ylamino)pyrimidine], for which the IC50 in data set [1] and in data set [4] was greater than 10 µM each time. In addition, the fraction unbound at 18 h, 20 µM in data set [2] is 0.0205. Besides, in data set [3] (phosphate buffer, 25 °C, pH 7.4, aqueous buffer, thermodynamic from solid), the concentration in solution (solubility at 24 h) came to 9.24 µM (≈ 4.01 µg/mL).

Regarding `COc1cc(Nc2cc(C)n[nH]2)nc(N2CCC[C@H]2c2cc(-c3ncccn3)no2)n1` [Example 1, (S)-6-Methoxy-2-{2-[3-(pyrimid-2-yl)isoxazol-5-yl]pyrrolidin-1-yl}-4-(5-methyl-1H-pyrazol-3-ylamino)pyrimidine], the IC50 in data set [1] and in data set [4] was greater than 10 µM each time. Moreover, the fraction unbound at 18 h, 20 µM in data set [2] was determined as 0.0523. Further, the solubility at 24 h in data set [3] (25° C.) is 160 µM (≈ 67.1 µg/mL).

As a reminder, the IC50 is the concentration that inhibits the measured activity by half. In general, solubility refers to the concentration that dissolves in the medium under given conditions.
